Experimental data published in patent US20170325453A1, “Herbicidal Mixtures for Controlling Herbicide-Resistant Dicotyledonous Plants” (priority 2014, published 2017).

Experiments:
Assay type in all cases: in vivo
[1] = test system: Trichachne insularis (Digitaria insularis); test: Example 2: visual control of Trichachne insularis (Digitaria insularis), post emergence (Table 16); settings: visual control 0-100%, dose per numbered treatment
Protocol: (§1) The study was carried out in Brazil.
(§2) All treatments were applied in established weeds, post emergence, before weeds flowering. The treatments were applied using backpressure equipment (nozzles TEEJET8002) with a water consumption of 150 liters per hectare, 1.2 BAR.
(§3) 14, 21, 28, 35 and 42 days after application (“DAA”) evaluations were carried out, i.e. measuring the control of Trichachne insularis (Digitaria insularis) and its regrowth. The assessment consisted in a visual control level of weeds in which 0% related to absence of control and 100% to total control of weeds. The regrowth were assessed by comparing the emergence of new tillers in treatments versus the emergence of new tillers in check (non-treated control).
(§4) An analysis was carried out for viability rates applied through a variance analysis and a mean comparison test of Student—Newman-Keuls ([…]) with the ARM® statistical analysis package.

[2] = test system: Trichachne insularis (Digitaria insularis); test: Example 2: regrowth of D. insularis, emergence of new tillers versus non-treated check (Table 17); design: scale not given here; settings: post emergence; for regrowth of D. insularis 35 DAA: 35 days after application; for regrowth of D. insularis 42 DAA: 42 days after application
Protocol: as §1, §2, §3, §4

[3] = test system: Conyza bonariensis; test: Example 3: control of Conyza bonariensis, viable weeds versus control plot, synergy by Colby; design: key: % control, viable weeds vs. untreated control plot; settings: weeds 20 cm height at application
Excerpt: Synergism can be described as an interaction where the combined effect of two or more compounds is greater than the sum of the individual effects of each of the compounds. The presence of a synergistic effect in terms of percent control, between two mixing partners (X and Y) can be calculated using the Colby equation (Colby, S. R., 1967, Calculating Synergistic and Antagonistic Responses in Herbicide Combinations, Weeds, 15, 21-22):
When the observed combined control effect is greater than the expected (calculated) combined control effect (E), then the combined effect is synergistic. The synergistic effect may also be present when the observed combined control effect is equal to the expected (calculates) combined control effect, especially when control values over 90 are calculated.
Analogously, the Colby's equation can be used to determine synergism of 3-way and higher mixtures:
as §1
The applications carried out by a back pressure sprayer with T-jet nozzles (XR-110.02) covering 200 liters per hectare. At the time of application, Conyza bonariensis weeds were 20 cm height. The results assessed by the comparison between viable weeds at the control plot and the viable weeds at the treatments plots. To the experiment, the plot consist of a 20 m2 area (5 meters length and 4 meters width).
The synergy was calculated by Colby formula and it expansion for three-way mixtures

CCSC(C)CC1CC(=O)C(/C(CC)=N/OC/C=C/Cl)=C(O)C1 (racemic) [Clethodim, (RS)-2-[(E)-1-[(E)-3-chloroallyloxyimino]propyl]-5-[2-(ethylthio)propyl]-3-hydroxycyclohex-2-en-1-one]
% of control, 28 DAA, Proved [1]: 62.5% | % of control, 35 DAA, Proved [1]: 60% | % of control, 42 DAA, Proved [1]: 52.5% | regrowth of D. insularis 35 DAA [2]: 28 | regrowth of D. insularis 42 DAA [2]: 33.75

O=C(O)CNCP(=O)(O)O [Glyphosate, N-(phosphonomethyl)glycine]
% of control, 28 DAA, Proved [1]: 8.75% | % of control, 35 DAA, Proved [1]: 6.25% | % of control, 42 DAA, Proved [1]: 3.75% | regrowth of D. insularis 35 DAA [2]: 61.25 | regrowth of D. insularis 42 DAA [2]: 67.5 | Control of Conyza bonariensis 7 DAA Field Results ([3]; listed as 1 Glyphosate): 32.50 | Control of Conyza bonariensis 7 DAA Field Results ([3]; listed as 3 Glyphosate): 15.00 | Control of Conyza bonariensis 15 DAA Field Results ([3]; listed as 1 Glyphosate): 65.00 | Control of Conyza bonariensis 15 DAA Field Results ([3]; listed as 3 Glyphosate): 27.50

CC(C)N(C)S(=O)(=O)NC(=O)c1cc(-n2c(=O)cc(C(F)(F)F)n(C)c2=O)c(F)cc1Cl [Saflufenacil, N′-{2-chloro-4-fluoro-5-[1,2,3,6-tetrahydro-3-methyl-2,6-dioxo-4-(trifluoromethyl)pyrimidin-1-yl]benzoyl}-N-isopropyl-N-methylsulfannide]
% of control, 28 DAA, Proved ([1]; listed as 05. Saflufenacil): 5% | % of control, 28 DAA, Proved ([1]; listed as 06. Saflufenacil): 6.25% | % of control, 35 DAA, Proved ([1]; listed as 05. Saflufenacil): 5% | % of control, 35 DAA, Proved ([1]; listed as 06. Saflufenacil): 6.25% | % of control, 42 DAA, Proved [1]: 2.5% | regrowth of D. insularis 35 DAA ([2]; listed as 05. Saflufenacil): 63.75 | regrowth of D. insularis 35 DAA ([2]; listed as 06. Saflufenacil): 66.5 | regrowth of D. insularis 42 DAA ([2]; listed as 05. Saflufenacil): 72.5 | regrowth of D. insularis 42 DAA ([2]; listed as 06. Saflufenacil): 78.75 | Control of Conyza bonariensis 7 DAA Field Results ([3]; listed as 4 Saflufenacil): 60.00 | Control of Conyza bonariensis 7 DAA Field Results ([3]; listed as 5 Saflufenacil): 86.25 | Control of Conyza bonariensis 15 DAA Field Results ([3]; listed as 4 Saflufenacil): 56.25 | Control of Conyza bonariensis 15 DAA Field Results ([3]; listed as 5 Saflufenacil): 73.75
